Experiments:
[1] = Inhibition of FTK (unknown origin); parameters: species or system Homo sapiens
Tau-tubulin kinase 1 [2] = biological target: T1, Tau-tubulin kinase 1 (Homo sapiens, UniProt Q5TCY1); assay: Binding affinity to phosphorylated TTBK1 (unknown origin) assessed as association rate constant by SPR analysis
Tau-tubulin kinase 1 [3] = biological target: T1, Tau-tubulin kinase 1; assay: Binding affinity to phosphorylated TTBK1 (unknown origin) by SPR analysis

T1 sequence (Q5TCY1 whole entry): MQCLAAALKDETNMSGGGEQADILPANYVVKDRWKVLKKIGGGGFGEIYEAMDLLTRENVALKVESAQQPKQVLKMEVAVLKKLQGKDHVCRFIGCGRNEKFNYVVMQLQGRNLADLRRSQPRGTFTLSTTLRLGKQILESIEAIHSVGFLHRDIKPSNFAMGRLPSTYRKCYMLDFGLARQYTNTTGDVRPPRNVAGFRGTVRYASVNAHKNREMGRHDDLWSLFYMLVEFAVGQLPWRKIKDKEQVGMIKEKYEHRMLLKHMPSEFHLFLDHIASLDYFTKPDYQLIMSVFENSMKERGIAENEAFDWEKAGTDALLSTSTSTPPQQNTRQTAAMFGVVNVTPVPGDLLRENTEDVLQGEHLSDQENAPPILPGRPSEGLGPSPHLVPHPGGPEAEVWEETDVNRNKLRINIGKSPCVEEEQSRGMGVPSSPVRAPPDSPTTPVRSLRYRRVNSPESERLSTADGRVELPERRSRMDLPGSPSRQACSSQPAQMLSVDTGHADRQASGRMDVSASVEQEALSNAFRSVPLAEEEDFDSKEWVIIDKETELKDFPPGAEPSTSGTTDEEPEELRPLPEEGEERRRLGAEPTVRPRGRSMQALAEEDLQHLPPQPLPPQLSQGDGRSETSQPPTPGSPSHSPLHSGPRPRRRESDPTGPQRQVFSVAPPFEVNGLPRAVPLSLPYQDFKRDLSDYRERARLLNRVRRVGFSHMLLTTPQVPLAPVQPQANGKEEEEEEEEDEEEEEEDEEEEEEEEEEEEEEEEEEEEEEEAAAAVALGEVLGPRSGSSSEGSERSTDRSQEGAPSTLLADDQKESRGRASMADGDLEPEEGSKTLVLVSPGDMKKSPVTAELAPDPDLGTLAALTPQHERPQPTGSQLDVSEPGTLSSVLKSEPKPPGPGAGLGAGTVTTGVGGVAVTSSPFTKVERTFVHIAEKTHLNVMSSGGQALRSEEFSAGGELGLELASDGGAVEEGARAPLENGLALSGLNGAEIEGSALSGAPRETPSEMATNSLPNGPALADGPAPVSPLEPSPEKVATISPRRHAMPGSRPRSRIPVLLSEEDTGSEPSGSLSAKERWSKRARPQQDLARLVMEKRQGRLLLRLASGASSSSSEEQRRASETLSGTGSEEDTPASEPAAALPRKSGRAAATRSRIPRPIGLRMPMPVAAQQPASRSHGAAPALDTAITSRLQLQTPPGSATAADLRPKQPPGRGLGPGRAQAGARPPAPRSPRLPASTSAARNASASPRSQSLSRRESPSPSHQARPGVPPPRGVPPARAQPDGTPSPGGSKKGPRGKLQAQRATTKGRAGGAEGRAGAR

IC50 [1] [µM] | K (Tau-tubulin kinase 1 [2]) [×10⁶ /s] | Kd (Tau-tubulin kinase 1 [3]) [µM] | Structure (SMILES)
11 | 6.8 |  | COc1cc2ncnc(Nc3cccc(O)c3)c2cc1OC
 |  | 4.1 | COC(=O)c1cc(Nc2ncnc3[nH]ccc23)ccc1Br

Source: ChEMBL document CHEMBL4325845, “Tau Tubulin Kinase 1 (TTBK1), a new player in the fight against neurodegenerative diseases” (Eur J Med Chem, 2019)
